Reference: publication PMC7377239, “Cardiovascular Effects of Polychlorinated Biphenyls and Their Major Metabolites” (Environmental Health Perspectives, 2020)
Where two headings read alike, the source gives them in different places.

How the values were obtained:
HUVECs = assay: High-content imaging cytotoxicity in HUVECs, 24 h; assay type: cell-based, human; settings: for minimal effective concentration / viability at 0.01 µM / activity at 0.01 µM / activity at 0.1 µM / viability at 1 µM / activity at 1 µM / viability at 10 µM / activity at 10 µM / viability at 100 µM / activity at 100 µM: Homo sapiens, HUVEC, 24 h; for viability at 0.01 µM / activity at 0.01 µM: concentration 0.01 µM; for viability at 1 µM / activity at 1 µM: concentration 1.00 µM; for viability at 10 µM / activity at 10 µM: concentration 10.00 µM; for viability at 100 µM / activity at 100 µM: concentration 100.00 µM
Procedure, shortened: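 HUVECs (passages 1–5) grown to monolayer over 3–5 d, then exposed 24 h at 37°C, 5% CO2; stained with Hoechst 33342, MitoTracker Orange and calcein AM and imaged at 10×. Readouts normalized to 0.5% DMSO vehicle, four-parameter logistic fit; POD at one-SD cutoff, 100μM assigned when no response.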

[1] = system: iCell cardiomyocytes (human iPSC-derived cardiomyocytes); assay: High-content imaging of cytotoxicity and mitochondrial integrity in iPSC-CMs; assay type: cell-based
Procedure, shortened: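 Readouts from high-content images were normalized to vehicle controls containing 0.5% vol/vol DMSO. They were fit to a four-parameter logistic model in R. Points of departure were set using a cutoff of one standard deviation across vehicle control means. Where no concentration–response was seen, the top tested concentration of 100μM was assigned as the no observable adverse effect level.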

[2] = mitoint, 24 hr, read-out: POD huvec.mitoint.24hr
[3] = nma, 24 hr, read-out: POD huvec.nma.24hr
[4] = Homo sapiens, Cardiomyocyte, 24 h, cardiomyocytes (cm), mii, 24 hrs, read-out: POD cm.mii.24hrs
[5] = HUVECs, 24 hr, 0.00 µM = 100.00, read-out: huvec.cyto.24hr
[6] = HUVECs, 24 hr, 0.00 µM = 100.00, read-out: huvec.mito.24hr
[7] = HUVECs, 24 hr, 0.00 µM = 100.00, read-out: huvec.mitoint.24hr
[8] = HUVECs, 24 hr, 0.00 µM = 100.00, read-out: huvec.nma.24hr
[9] = HUVECs, 24 hrs, 0.00 µM = 100.00, read-out: huvec.tc.24hrs
[10] = 100.00 µM, 90min, 0.00 µM = 100.00
[11] = Homo sapiens, Cardiomyocyte, 1.5 h, 90min, 0.00 µM = 100.00, read-out: cm.cam.90min
[12] = Homo sapiens, Cardiomyocyte, 1.5 h, 90min, 0.00 µM = 100.00, read-out: cm.mii.90min
[13] = Homo sapiens, Cardiomyocyte, 1.5 h, 90min, 0.00 µM = 100.00, read-out: cm.mito.90min
[14] = Homo sapiens, Cardiomyocyte, 1.5 h, 90min, 0.00 µM = 100.00, read-out: cm.tc.90min
[15] = Homo sapiens, Cardiomyocyte, 24 h, 24hrs, 0.00 µM = 100.00, read-out: cm.cam.24hrs
[16] = Homo sapiens, Cardiomyocyte, 24 h, 24hrs, 0.00 µM = 100.00, read-out: cm.mii.24hrs
[17] = Homo sapiens, Cardiomyocyte, 24 h, 24hrs, 0.00 µM = 100.00, read-out: cm.mito.24hrs
[18] = Homo sapiens, Cardiomyocyte, 24 h, 24hrs, 0.00 µM = 100.00, read-out: cm.tc.24hrs

SMILES: Oc1cc(Cl)cc(-c2cccc(Cl)c2)c1 [5-OH-PCB 11]
- minimal effective concentration (HUVECs; cyto, 24 hr, read-out: POD huvec.cyto.24hr): 0.95 µM
- minimal effective concentration (HUVECs; mito, 24 hr, read-out: POD huvec.mito.24hr): 0.84 µM
- minimal effective concentration (HUVECs; [2]): 3.3 µM
- minimal effective concentration (HUVECs; [3]): 1.22 µM
- minimal effective concentration (HUVECs; tc, 24 hr, read-out: POD huvec.tc.24hr): 0.95 µM
- minimal effective concentration ([1]; Homo sapiens, Cardiomyocyte, 1.5 h, cardiomyocytes (cm), cam, 90 min, read-out: POD cm.cam.90min): 16.2 µM
- minimal effective concentration ([1]; Homo sapiens, Cardiomyocyte, 1.5 h, cardiomyocytes (cm), mii, 90 min, read-out: POD cm.mii.90min): 34.1 µM
- minimal effective concentration ([1]; Homo sapiens, Cardiomyocyte, 1.5 h, cardiomyocytes (cm), mito, 90 min, read-out: POD cm.mito.90min): 13.8 µM
- minimal effective concentration ([1]; Homo sapiens, Cardiomyocyte, 1.5 h, cardiomyocytes (cm), tc, 90 min, read-out: POD cm.tc.90min): 14 µM
- minimal effective concentration ([1]; Homo sapiens, Cardiomyocyte, 24 h, cardiomyocytes (cm), cam, 24 hrs, read-out: POD cm.cam.24hrs): 13.8 µM
- minimal effective concentration [1, 4]: 8.43 µM
- minimal effective concentration ([1]; Homo sapiens, Cardiomyocyte, 24 h, cardiomyocytes (cm), mito, 24 hrs, read-out: POD cm.mito.24hrs): 14.6 µM
- minimal effective concentration ([1]; Homo sapiens, Cardiomyocyte, 24 h, cardiomyocytes (cm), tc, 24 hrs, read-out: POD cm.tc.24hrs): 10.7 µM

SMILES: Clc1ccc(Cl)c(-c2c(Cl)ccc(Cl)c2Cl)c1Cl [(+)-PCB 136, 2,2′,3,3′,6,6′-hexachlorobiphenyl]
- huvec.mito.24hr (HUVECs; HUVECs, 24 hr, concentration 0.10 µM, 0.00 µM = 100.00): 96.64
- minimal effective concentration (HUVECs; [2]): 0.64 µM
- minimal effective concentration (HUVECs; [3]): 1.82 µM
- viability at 0.01 µM (HUVECs; [5]): 89.2%
- activity at 0.01 µM (HUVECs; [6]): 87.1%
- activity at 0.01 µM (HUVECs; [7]): 81.7%
- activity at 0.01 µM (HUVECs; [8]): 95.8%
- activity at 0.1 µM (HUVECs; HUVECs, 24 hr, concentration 0.10 µM, 0.00 µM = 100.00, read-out: huvec.mitoint.24hr): 80.9%
- activity at 0.1 µM (HUVECs; HUVECs, 24 hr, concentration 0.10 µM, 0.00 µM = 100.00, read-out: huvec.nma.24hr): 93.4%
- viability at 1 µM (HUVECs; [5]): 81.4%
- activity at 1 µM (HUVECs; [6]): 80.3%
- activity at 1 µM (HUVECs; [7]): 78.8%
- activity at 1 µM (HUVECs; [8]): 99.5%
- viability at 10 µM (HUVECs; [5]): 65.2%
- activity at 10 µM (HUVECs; [6]): 30.4%
- activity at 10 µM (HUVECs; [7]): 9.57%
- activity at 10 µM (HUVECs; [8]): 50.8%
- viability at 100 µM (HUVECs; [5]): 40%
- activity at 100 µM (HUVECs; [6]): 25.7%
- activity at 100 µM (HUVECs; [7]): 14.8%
- activity at 100 µM (HUVECs; [8]): 75.7%
- minimal effective concentration (HUVECs; HUVECs, 24 hr, MAX 100.00, read-out: huvec.mitoint.24hr POD): 0.64 µM
- minimal effective concentration (HUVECs; HUVECs, 24 hr, MAX 100.00, read-out: huvec.nma.24hr POD): 1.82 µM
- viability at 0.01 µM (HUVECs; [9]): 89.2%
- viability at 1 µM (HUVECs; [9]): 81.4%
- viability at 10 µM (HUVECs; [9]): 65.3%
- viability at 100 µM (HUVECs; [9]): 40.2%
- cm.mii.24hrs ([1]; 0.10 µM, 24hrs, 0.00 µM = 100.00): 104.89
- cm.mito.24hrs ([1]; 10.00 µM, 24hrs, 0.00 µM = 100.00): 66.95
- cm.mii.90min [1, 10]: 30.66
- cm.mito.90min [1, 10]: 0.83
- cm.mii.24hrs ([1]; 100.00 µM, 24hrs, 0.00 µM = 100.00): 35.96
- viability at 0.01 µM [1, 11]: 94%
- activity at 0.01 µM [1, 12]: 115%
- activity at 0.01 µM [1, 13]: 94.1%
- viability at 0.01 µM [1, 14]: 94.5%
- viability at 0.1 µM ([1]; Homo sapiens, Cardiomyocyte, 1.5 h, 0.10 µM, 90min, 0.00 µM = 100.00, read-out: cm.cam.90min): 100%
- activity at 0.1 µM ([1]; Homo sapiens, Cardiomyocyte, 1.5 h, 0.10 µM, 90min, 0.00 µM = 100.00, read-out: cm.mii.90min): 108%
- activity at 0.1 µM ([1]; Homo sapiens, Cardiomyocyte, 1.5 h, 0.10 µM, 90min, 0.00 µM = 100.00, read-out: cm.mito.90min): 100%
- viability at 0.1 µM ([1]; Homo sapiens, Cardiomyocyte, 1.5 h, 0.10 µM, 90min, 0.00 µM = 100.00, read-out: cm.tc.90min): 100%
- viability at 1 µM [1, 11]: 97.7%
- activity at 1 µM [1, 12]: 103%
- activity at 1 µM [1, 13]: 97.5%
- viability at 1 µM [1, 14]: 97.8%
- viability at 10 µM ([1]; Homo sapiens, Cardiomyocyte, 1.5 h, 10.00 µM, 90min, 0.00 µM = 100.00, read-out: cm.cam.90min): 101%
- activity at 10 µM ([1]; Homo sapiens, Cardiomyocyte, 1.5 h, 10.00 µM, 90min, 0.00 µM = 100.00, read-out: cm.mii.90min): 101%
- activity at 10 µM ([1]; Homo sapiens, Cardiomyocyte, 1.5 h, 10.00 µM, 90min, 0.00 µM = 100.00, read-out: cm.mito.90min): 102%
- viability at 10 µM ([1]; Homo sapiens, Cardiomyocyte, 1.5 h, 10.00 µM, 90min, 0.00 µM = 100.00, read-out: cm.tc.90min): 102%
- viability at 0.01 µM [1, 15]: 92.8%
- activity at 0.01 µM [1, 16]: 90.7%
- activity at 0.01 µM [1, 17]: 95.4%
- viability at 0.01 µM [1, 18]: 95.4%
- viability at 0.1 µM ([1]; Homo sapiens, Cardiomyocyte, 24 h, 0.10 µM, 24hrs, 0.00 µM = 100.00, read-out: cm.cam.24hrs): 96.6%
- activity at 0.1 µM ([1]; Homo sapiens, Cardiomyocyte, 24 h, 0.10 µM, 24hrs, 0.00 µM = 100.00, read-out: cm.mito.24hrs): 98.1%
- viability at 0.1 µM ([1]; Homo sapiens, Cardiomyocyte, 24 h, 0.10 µM, 24hrs, 0.00 µM = 100.00, read-out: cm.tc.24hrs): 96.6%
- viability at 1 µM [1, 15]: 95.6%
- activity at 1 µM [1, 16]: 86.4%
- activity at 1 µM [1, 17]: 97%
- viability at 1 µM [1, 18]: 96.3%
- activity at 10 µM ([1]; Homo sapiens, Cardiomyocyte, 24 h, 10.00 µM, 24hrs, 0.00 µM = 100.00, read-out: cm.mii.24hrs): 99.9%
- viability at 100 µM ([1]; Homo sapiens, Cardiomyocyte, 24 h, 100.00 µM, 24hrs, 0.00 µM = 100.00, read-out: cm.cam.24hrs): 1.96%
- activity at 100 µM ([1]; Homo sapiens, Cardiomyocyte, 24 h, 100.00 µM, 24hrs, 0.00 µM = 100.00, read-out: cm.mito.24hrs): 1.15%
- viability at 100 µM ([1]; Homo sapiens, Cardiomyocyte, 24 h, 100.00 µM, 24hrs, 0.00 µM = 100.00, read-out: cm.tc.24hrs): 2.72%
- minimal effective concentration [1, 4]: 50.8 µM
- minimal effective concentration ([1]; Homo sapiens, Cardiomyocyte, 24 h, read-out: cm.mii.24hrs POD): 50.8 µM
